Experimental data as given in the NIST ThermoML archive (doi:10.1021/je060411g).

Key:
[1] = molar heat capacity at constant pressure; settings: 101.33 kPa
[2] = Glass

CC(C)CCO [3-methylbutan-1-ol]
[1]
Settings | molar heat capacity at constant pressure [J/K/mol]
79.29 K, Glass | 64.16
79.93 K, Glass | 64.23
81.22 K, Glass | 65.13
83.16 K, Glass | 66.6
85.07 K, Glass | 67.98
86.97 K, Glass | 69.22
88.88 K, Glass | 70.53
90.79 K, Glass | 71.96
92.71 K, Glass | 73.36
94.62 K, Glass | 74.71
96.54 K, Glass | 76.12
98.47 K, Glass | 77.7
100.4 K, Glass | 79.43
102.33 K, Glass | 80.27
104.26 K, Glass | 81.54
106.19 K, Glass | 83.08
108.13 K, Glass | 84.68
110.07 K, Glass | 86.19
112.01 K, Glass | 87.96
113.94 K, Glass | 90.43
115.88 K, Glass | 94.62
123.04 K, Liquid | 144.09
124.93 K, Liquid | 144.11
126.89 K, Liquid | 144.29
128.85 K, Liquid | 144.62
130.82 K, Liquid | 144.96
132.79 K, Liquid | 145.22
134.76 K, Liquid | 145.47
136.73 K, Liquid | 145.74
138.7 K, Liquid | 146.13
140.67 K, Liquid | 146.33
142.65 K, Liquid | 146.61
144.62 K, Liquid | 146.82
146.59 K, Liquid | 147.14
148.57 K, Liquid | 147.5
150.54 K, Liquid | 147.86
152.52 K, Liquid | 148.08
154.49 K, Liquid | 148.41
156.46 K, Liquid | 148.76
158.43 K, Liquid | 148.95
160.41 K, Liquid | 149.4
162.38 K, Liquid | 149.76
164.35 K, Liquid | 149.96
166.32 K, Liquid | 150.38
168.29 K, Liquid | 150.9
170.27 K, Liquid | 151.21
172.24 K, Liquid | 151.76
174.21 K, Liquid | 152.03
176.19 K, Liquid | 152.42
178.16 K, Liquid | 152.92
180.14 K, Liquid | 153.49
182.11 K, Liquid | 153.84
184.09 K, Liquid | 154.42
186.07 K, Liquid | 154.93
188.05 K, Liquid | 155.51
190.03 K, Liquid | 156.14
192.01 K, Liquid | 156.62
193.99 K, Liquid | 157.15
195.96 K, Liquid | 157.72
197.94 K, Liquid | 158.12
199.92 K, Liquid | 158.79
201.91 K, Liquid | 159.5

Settings | Glass transition temperature [°C]
[2] | -155
